From the OligoGym collection
HELM strings list units from the 5' end as sugar, base in round brackets, then linkage (d deoxyribose, r ribose, m 2'-O-methyl, p phosphodiester). Strings are as the collection lists them; they lack the last nucleoside at the 3' end of the tested compound. [moe] = 2'-O-(2-methoxyethyl) (MOE); [sp] = phosphorothioate linkage; [m5C] = 5-methylcytosine

Each substance was assayed against SMN2 (assay: mouse, dose not given). Details: ASO.

Substance	3 h FOB score [score 0-7]
RNA1{[moe]([m5C])[sp].[moe](A)[sp].[moe]([m5C])[sp].[moe](T)[sp].[moe](T)[sp].[moe](T)[sp].[moe]([m5C])[sp].[moe](A)[sp].[moe](T)[sp].[moe](A)[sp].[moe](A)p.[moe](T)[sp].[moe](G)[sp].[moe]([m5C])[sp].[moe](T)[sp].[moe](G)[sp].[moe](G)}$$$$ (last 3' nucleoside missing)	0.25
RNA1{[moe]([m5C])[sp].[moe](A)[sp].[moe]([m5C])[sp].[moe](T)[sp].[moe](T)[sp].[moe](T)[sp].[moe]([m5C])[sp].[moe](A)[sp].[moe](T)[sp].[moe](A)[sp].[moe](A)p.[moe](T)[sp].[moe](G)[sp].[moe]([m5C])[sp].[moe](T)p.[moe](G)[sp].[moe](G)}$$$$ (last 3' nucleoside missing)	0
RNA1{[moe]([m5C])[sp].[moe](A)[sp].[moe]([m5C])[sp].[moe](T)[sp].[moe](T)[sp].[moe](T)[sp].[moe]([m5C])[sp].[moe](A)[sp].[moe](T)[sp].[moe](A)[sp].[moe](A)p.[moe](T)p.[moe](G)p.[moe]([m5C])p.[moe](T)[sp].[moe](G)[sp].[moe](G)}$$$$ (last 3' nucleoside missing)	0
RNA1{[moe]([m5C])[sp].[moe](A)[sp].[moe]([m5C])[sp].[moe](T)[sp].[moe](T)[sp].[moe](T)[sp].[moe]([m5C])[sp].[moe](A)[sp].[moe](T)[sp].[moe](A)p.[moe](A)p.[moe](T)[sp].[moe](G)[sp].[moe]([m5C])[sp].[moe](T)[sp].[moe](G)[sp].[moe](G)}$$$$ (last 3' nucleoside missing)	1
RNA1{[moe]([m5C])[sp].[moe](A)[sp].[moe]([m5C])[sp].[moe](T)[sp].[moe](T)[sp].[moe](T)[sp].[moe]([m5C])[sp].[moe](A)[sp].[moe](T)p.[moe](A)[sp].[moe](A)[sp].[moe](T)[sp].[moe](G)[sp].[moe]([m5C])[sp].[moe](T)[sp].[moe](G)[sp].[moe](G)}$$$$ (last 3' nucleoside missing)	0
RNA1{[moe]([m5C])[sp].[moe](A)[sp].[moe]([m5C])[sp].[moe](T)[sp].[moe](T)[sp].[moe](T)[sp].[moe]([m5C])[sp].[moe](A)[sp].[moe](T)p.[moe](A)[sp].[moe](A)[sp].[moe](T)[sp].[moe](G)[sp].[moe]([m5C])[sp].[moe](T)p.[moe](G)[sp].[moe](G)}$$$$ (last 3' nucleoside missing)	0
RNA1{[moe]([m5C])[sp].[moe](A)[sp].[moe]([m5C])[sp].[moe](T)[sp].[moe](T)[sp].[moe](T)[sp].[moe]([m5C])[sp].[moe](A)[sp].[moe](T)p.[moe](A)p.[moe](A)p.[moe](T)p.[moe](G)[sp].[moe]([m5C])[sp].[moe](T)[sp].[moe](G)[sp].[moe](G)}$$$$ (last 3' nucleoside missing)	0
RNA1{[moe]([m5C])[sp].[moe](A)[sp].[moe]([m5C])[sp].[moe](T)[sp].[moe](T)[sp].[moe](T)[sp].[moe]([m5C])[sp].[moe](A)p.[moe](T)p.[moe](A)[sp].[moe](A)[sp].[moe](T)[sp].[moe](G)[sp].[moe]([m5C])[sp].[moe](T)[sp].[moe](G)[sp].[moe](G)}$$$$ (last 3' nucleoside missing)	0
RNA1{[moe]([m5C])[sp].[moe](A)[sp].[moe]([m5C])[sp].[moe](T)[sp].[moe](T)[sp].[moe](T)[sp].[moe]([m5C])[sp].[moe](A)p.[moe](T)p.[moe](A)p.[moe](A)[sp].[moe](T)[sp].[moe](G)[sp].[moe]([m5C])[sp].[moe](T)[sp].[moe](G)[sp].[moe](G)}$$$$ (last 3' nucleoside missing)	1
RNA1{[moe]([m5C])[sp].[moe](A)[sp].[moe]([m5C])[sp].[moe](T)[sp].[moe](T)[sp].[moe](T)[sp].[moe]([m5C])[sp].[moe](A)p.[moe](T)p.[moe](A)p.[moe](A)p.[moe](T)[sp].[moe](G)[sp].[moe]([m5C])[sp].[moe](T)[sp].[moe](G)[sp].[moe](G)}$$$$ (last 3' nucleoside missing)	0
RNA1{[moe]([m5C])[sp].[moe](A)[sp].[moe]([m5C])[sp].[moe](T)[sp].[moe](T)[sp].[moe](T)[sp].[moe]([m5C])p.[moe](A)[sp].[moe](T)[sp].[moe](A)[sp].[moe](A)[sp].[moe](T)[sp].[moe](G)[sp].[moe]([m5C])[sp].[moe](T)[sp].[moe](G)[sp].[moe](G)}$$$$ (last 3' nucleoside missing)	0
RNA1{[moe]([m5C])[sp].[moe](A)[sp].[moe]([m5C])[sp].[moe](T)[sp].[moe](T)[sp].[moe](T)[sp].[moe]([m5C])p.[moe](A)[sp].[moe](T)[sp].[moe](A)[sp].[moe](A)[sp].[moe](T)[sp].[moe](G)[sp].[moe]([m5C])[sp].[moe](T)p.[moe](G)[sp].[moe](G)}$$$$ (last 3' nucleoside missing)	0
RNA1{[moe]([m5C])[sp].[moe](A)[sp].[moe]([m5C])[sp].[moe](T)[sp].[moe](T)[sp].[moe](T)[sp].[moe]([m5C])p.[moe](A)p.[moe](T)p.[moe](A)p.[moe](A)[sp].[moe](T)[sp].[moe](G)[sp].[moe]([m5C])[sp].[moe](T)[sp].[moe](G)[sp].[moe](G)}$$$$ (last 3' nucleoside missing)	0
RNA1{[moe]([m5C])[sp].[moe](A)[sp].[moe]([m5C])[sp].[moe](T)[sp].[moe](T)[sp].[moe](T)[sp].[moe]([m5C])p.[moe](A)p.[moe](T)p.[moe](A)p.[moe](A)p.[moe](T)[sp].[moe](G)[sp].[moe]([m5C])[sp].[moe](T)[sp].[moe](G)[sp].[moe](G)}$$$$ (last 3' nucleoside missing)	0
RNA1{[moe]([m5C])[sp].[moe](A)[sp].[moe]([m5C])[sp].[moe](T)[sp].[moe](T)[sp].[moe](T)[sp].[moe]([m5C])p.[moe](A)p.[moe](T)p.[moe](A)p.[moe](A)p.[moe](T)p.[moe](G)[sp].[moe]([m5C])[sp].[moe](T)[sp].[moe](G)[sp].[moe](G)}$$$$ (last 3' nucleoside missing)	0
RNA1{[moe]([m5C])[sp].[moe](A)[sp].[moe]([m5C])[sp].[moe](T)[sp].[moe](T)[sp].[moe](T)p.[moe]([m5C])p.[moe](A)[sp].[moe](T)[sp].[moe](A)[sp].[moe](A)[sp].[moe](T)[sp].[moe](G)[sp].[moe]([m5C])[sp].[moe](T)[sp].[moe](G)[sp].[moe](G)}$$$$ (last 3' nucleoside missing)	0
RNA1{[moe]([m5C])[sp].[moe](A)[sp].[moe]([m5C])[sp].[moe](T)[sp].[moe](T)[sp].[moe](T)p.[moe]([m5C])p.[moe](A)p.[moe](T)p.[moe](A)p.[moe](A)p.[moe](T)p.[moe](G)[sp].[moe]([m5C])[sp].[moe](T)[sp].[moe](G)[sp].[moe](G)}$$$$ (last 3' nucleoside missing)	0
RNA1{[moe]([m5C])[sp].[moe](A)[sp].[moe]([m5C])[sp].[moe](T)[sp].[moe](T)p.[moe](T)[sp].[moe]([m5C])[sp].[moe](A)[sp].[moe](T)[sp].[moe](A)[sp].[moe](A)[sp].[moe](T)[sp].[moe](G)[sp].[moe]([m5C])[sp].[moe](T)[sp].[moe](G)[sp].[moe](G)}$$$$ (last 3' nucleoside missing)	0.5
RNA1{[moe]([m5C])[sp].[moe](A)[sp].[moe]([m5C])[sp].[moe](T)[sp].[moe](T)p.[moe](T)[sp].[moe]([m5C])[sp].[moe](A)[sp].[moe](T)[sp].[moe](A)[sp].[moe](A)[sp].[moe](T)[sp].[moe](G)[sp].[moe]([m5C])[sp].[moe](T)p.[moe](G)[sp].[moe](G)}$$$$ (last 3' nucleoside missing)	0
RNA1{[moe]([m5C])[sp].[moe](A)[sp].[moe]([m5C])[sp].[moe](T)[sp].[moe](T)p.[moe](T)p.[moe]([m5C])p.[moe](A)p.[moe](T)[sp].[moe](A)[sp].[moe](A)[sp].[moe](T)[sp].[moe](G)[sp].[moe]([m5C])[sp].[moe](T)[sp].[moe](G)[sp].[moe](G)}$$$$ (last 3' nucleoside missing)	0
RNA1{[moe]([m5C])[sp].[moe](A)[sp].[moe]([m5C])[sp].[moe](T)p.[moe](T)p.[moe](T)[sp].[moe]([m5C])[sp].[moe](A)[sp].[moe](T)[sp].[moe](A)[sp].[moe](A)[sp].[moe](T)[sp].[moe](G)[sp].[moe]([m5C])[sp].[moe](T)[sp].[moe](G)[sp].[moe](G)}$$$$ (last 3' nucleoside missing)	0
RNA1{[moe]([m5C])[sp].[moe](A)[sp].[moe]([m5C])p.[moe](T)[sp].[moe](T)[sp].[moe](T)[sp].[moe]([m5C])[sp].[moe](A)[sp].[moe](T)[sp].[moe](A)[sp].[moe](A)[sp].[moe](T)[sp].[moe](G)[sp].[moe]([m5C])[sp].[moe](T)[sp].[moe](G)[sp].[moe](G)}$$$$ (last 3' nucleoside missing)	1
RNA1{[moe]([m5C])[sp].[moe](A)[sp].[moe]([m5C])p.[moe](T)[sp].[moe](T)[sp].[moe](T)[sp].[moe]([m5C])[sp].[moe](A)[sp].[moe](T)[sp].[moe](A)[sp].[moe](A)[sp].[moe](T)[sp].[moe](G)[sp].[moe]([m5C])[sp].[moe](T)p.[moe](G)[sp].[moe](G)}$$$$ (last 3' nucleoside missing)	0
RNA1{[moe]([m5C])[sp].[moe](A)[sp].[moe]([m5C])p.[moe](T)[sp].[moe](T)[sp].[moe](T)[sp].[moe]([m5C])[sp].[moe](A)[sp].[moe](T)p.[moe](A)[sp].[moe](A)[sp].[moe](T)[sp].[moe](G)[sp].[moe]([m5C])[sp].[moe](T)p.[moe](G)[sp].[moe](G)}$$$$ (last 3' nucleoside missing)	0
